In this assay the target is HIV-1 protease (Human immunodeficiency virus type 1 group M subtype B, UniProt P04585). Put plainly: Inhibition constants against HIV-1 protease (method of Pennington et al.). It counts as biochemical. Conditions: HIV-1 protease; read-out: Ki value. An excerpt: We measured the inhibition constants of the compounds listed in Table VII against HIV-1 protease using the above-cited method of Pennington et al.
Take `O=C(N[C@@H](Cc1ccccc1)[C@H](O)CN(CC1CCCC1)S(=O)(=O)c1ccc(F)cc1)OCc1cccnc1` [Compound 111]: the Ki was 0.3 nM.

`CC(C)CN(C[C@@H](O)[C@H](Cc1ccccc1)NC(=O)O[C@H]1CCOC1)S(=O)(=O)c1cccc(S(N)(=O)=O)c1` [Compound 112, Benzene-1,3-disulfonic acid 1-amide 3-((2 syn,3S)-2-hydroxy-4-phenyl-3-(3-(S)-tetrahydrofuran-3-yloxycarbonylamino)-butyl)-isobutyl-amide]: the Ki amounted to 4 nM.

As for `CC(C)CN(C[C@@H](O)[C@H](Cc1ccccc1)NC(=O)O[C@H]1CCOC1)S(=O)(=O)c1ccoc1` [Compound 113], the Ki stood at 3 nM.

`C=CCOC(=O)N[C@@H](Cc1ccccc1)[C@H](O)CN(CC1CCCC1)S(=O)(=O)c1ccc(F)cc1` [Compound 114, N-((3-Allyloxycarbonylamino)-(2 syn,3S)-2-hydroxy-4-phenyl-butyl)-N-cyclopentylmethyl-4-fluoro-benzenesulfonamide]: the Ki came out at 0.35 nM.

For `CCOC(=O)N[C@@H](Cc1ccccc1)[C@H](O)CN(CC1CCCC1)S(=O)(=O)c1ccc(F)cc1` [Compound 115, N-Cyclopentylmethyl-N-((3-ethoxycarbonylamino)-(2 syn,3S)-2-hydroxy-4-phenyl-butyl)-4-fluoro-benzenesulfonamide], the Ki stood at 0.5 nM.

With `O=C(N[C@@H](Cc1ccccc1)[C@H](O)CN(CC1CCCC1)S(=O)(=O)c1ccc(Cl)cc1)O[C@H]1CCOC1` [Compound 116, 4-Chloro-N-cyclopentylmethyl-N-((2 syn,3S)-2-hydroxy-4-phenyl-3-((S)-tetrahydrofuran-3-yloxycarbonylamino)-butyl)-benzenesulfonamide], the Ki was below 0.1 nM.

In the case of `C=CCOC(=O)N[C@@H](Cc1ccccc1)[C@H](O)CN(CC1CCCC1)S(=O)(=O)c1ccc(Cl)cc1` [Compound 117], the Ki came to 0.26 nM.

`O=C(N[C@@H](Cc1ccccc1)[C@H](O)CN(CC1CCCC1)S(=O)(=O)c1ccc(Cl)cc1)OCc1cccnc1` [Compound 118]: the Ki was below 0.1 nM.

Take `CCOC(=O)N[C@@H](Cc1ccccc1)[C@H](O)CN(CC(C)C)S(=O)(=O)c1ccc(Cl)c(Cl)c1` [Compound 119]: the Ki was determined as 1.8 nM.

Take `CCOC(=O)N[C@@H](Cc1ccccc1)[C@H](O)CN(CC(C)C)S(=O)(=O)c1ccc(NC(C)=O)cc1` [Compound 120]: the Ki amounted to 11 nM.

As to `CCOC(=O)N[C@@H](Cc1ccccc1)[C@H](O)CN(CC(C)C)S(=O)(=O)c1ccc(F)cc1` [Compound 121], the Ki is 2 nM.

As to `C=CCOC(=O)N[C@@H](Cc1ccccc1)[C@H](O)CN(CC(C)C)S(=O)(=O)c1ccc(F)cc1` [Compound 122], the Ki was 1.2 nM.

In the case of `COc1ccc(S(=O)(=O)N(CC(C)C)C[C@@H](O)[C@H](Cc2ccccc2)NC(=O)O[C@H]2CCOC2)cc1OC` [Compound 123], the Ki was 10 nM.

Turning to `CC(C)CN(C[C@@H](O)[C@H](Cc1ccccc1)NC(=O)O[C@H]1CCOC1)S(=O)(=O)c1ccc(F)c(F)c1` [Compound 124], the Ki worked out at 1.1 nM.

On to `CC(=O)Nc1ccc(S(=O)(=O)N(CC2CCCC2)C[C@@H](O)[C@H](Cc2ccccc2)NC(=O)O[C@H]2CCOC2)cc1` [Compound 125, N-(4-(Cyclopentylmethyl-((2 syn,3S)-2-hydroxy-4-phenyl-3-((S)-tetrahydrofuran-3-yloxycarbonylamino)-butyl)-sulfamoyl)-phenyl)-acetamide], for which the inhibitory constant (Ki) was 0.3 nM.

Turning to `CN(C[C@@H](O)[C@H](Cc1ccccc1)NC(=O)OC(C)(C)C)S(=O)(=O)c1ccc(Cl)c(Cl)c1` [Compound 126], the Ki turned out to be 310 nM.

For the compound `CN(C[C@@H](O)[C@H](Cc1ccccc1)NC(=O)OC(C)(C)C)S(=O)(=O)c1ccc(F)cc1` [Compound 127], the Ki is 650 nM.

On to `CC(=O)Nc1ccc(S(=O)(=O)N(C)C[C@@H](O)[C@H](Cc2ccccc2)NC(=O)OC(C)(C)C)cc1` [Compound 128], for which the Ki was above 5000 nM.

Consider `CC(C)(C)OC(=O)NC(Cc1ccccc1)C(O)CN(CC1CCCO1)S(=O)(=O)c1ccc(F)cc1` (stereo not drawn) [Compound 129], for which the Ki is 19 nM.

Regarding `C=C(C)CN(C[C@@H](O)[C@H](Cc1ccccc1)NC(=O)OC(C)(C)C)S(=O)(=O)c1ccc(F)cc1` [Compound 130], the Ki turned out to be 14 nM.

For the compound `C=C(C)CN(C[C@@H](O)[C@H](Cc1ccccc1)NC(=O)OC(C)(C)C)S(=O)(=O)c1ccc(NC(C)=O)cc1` [Compound 131], the Ki amounted to 60 nM.

With `O=C(NC(Cc1ccccc1)C(O)CN(CC1CCCO1)S(=O)(=O)c1ccc(F)cc1)OC1CCOC1` (stereo not drawn) [Compound 132], the Ki came to 6 nM.

Turning to `CC(=O)Nc1ccc(S(=O)(=O)N(CC2CCCO2)CC(O)C(Cc2ccccc2)NC(=O)OC2CCOC2)cc1` (stereo not drawn) [Compound 133], the Ki was 24 nM.

On to `C=C(C)CN(C[C@@H](O)[C@H](Cc1ccccc1)NC(=O)O[C@H]1CCOC1)S(=O)(=O)c1ccc(NC(C)=O)cc1` [Compound 134], for which the Ki came to 8.4 nM.

Turning to `C=C(C)CN(C[C@@H](O)[C@H](Cc1ccccc1)NC(=O)O[C@H]1CCOC1)S(=O)(=O)c1ccc(F)cc1` [Compound 135], the Ki worked out at 2.7 nM.

Turning to `O=C(N[C@@H](Cc1ccccc1)[C@H](O)CN(Cc1ccco1)S(=O)(=O)c1ccc(F)cc1)O[C@H]1CCOC1` [Compound 136], the Ki was 18 nM.

In the case of `CC(=O)Nc1ccc(S(=O)(=O)N(Cc2ccco2)C[C@@H](O)[C@H](Cc2ccccc2)NC(=O)O[C@H]2CCOC2)cc1` [Compound 137], the Ki turned out to be 26 nM.

In the case of `CC(C)CN(C[C@@H](O)[C@H](Cc1ccccc1)NC(=O)O[C@H]1CCOC1)S(=O)(=O)c1cccc(Cl)c1` [Compound 138, 3-Chloro-N-((2 syn,3S)-2-hydroxy-4-phenyl-3-((S)-tetrahydrofuran-3-yloxycarbonylamino)-butyl)-N-isobutyl-benzenesulfonamide], the Ki stood at 1.4 nM.

As to `O=C1N[C@H](COC(=O)N[C@@H](Cc2ccccc2)[C@H](O)CN(CC2CCCC2)S(=O)(=O)c2ccc(Cl)cc2)CO1` [Compound 139, 4-Chloro-N-cyclopentylmethyl-N-(2-(syn)-hydroxy-3-((2-oxazolidon-4-(S)-yl-methyl)-oxycarbonylamino)-4-phenyl-butyl)-benzenesulfonamide], the Ki amounted to 1.2 nM.

With `COc1ccc(S(=O)(=O)N(CC2CCCC2)C[C@@H](O)[C@H](Cc2ccccc2)NC(=O)O[C@H]2CCOC2)cc1` [Compound 140, N-cyclopentylmethyl-N-((2 syn,3S)-2-hydroxy-4-phenyl-3-((S)-tetrahydrofuran-3-yloxycarbonylamino)-butyl)-4-methoxy-benzenesulfonamide], the Ki was below 0.1 nM.

In the case of `C=CCOC(=O)N[C@@H](Cc1ccccc1)[C@H](O)CN(CC1CCCC1)S(=O)(=O)c1ccc(OC)cc1` [Compound 141, N-((3-allyloxycarbonylamino)-(2 syn,3S)-2-hydroxy-4-phenyl-butyl)-N-cyclopentylmethyl-4-methoxy-benzenesulfonamide], the Ki was found to be 0.1 nM.

Consider `COc1ccc(S(=O)(=O)N(CC2CCCC2)C[C@@H](O)[C@H](Cc2ccccc2)NC(=O)OCc2cccnc2)cc1` [Compound 142], for which the Ki was below 0.1 nM.

Consider `CC(C)CN(C[C@@H](O)[C@H](Cc1ccccc1)NC(=O)O[C@H]1CCOC1)S(=O)(=O)c1ccc(-c2ccon2)s1` [Compound 145, 5-Isoxazol-3-yl-thiophene-2-sulfonic acid ((2 syn,3S)-2-hydroxy-4-phenyl-3-((S)-tetrahydrofuran-3-yloxycarbonylamino)-butyl)-isobutyl-amide], for which the Ki came to 1.4 nM.

Regarding `C=CCOC(=O)N[C@@H](Cc1ccccc1)[C@H](O)CN(CC1CCCC1)S(=O)(=O)c1ccc(NC(C)=O)cc1` [Compound 146, N-(4-((3-(Allyloxycarbonylamino)-(2 syn,3S)-2-hydroxy-4-phenyl-butyl)-cyclopentylmethylsulfamoyl)-phenyl)-acetamide], the Ki amounted to 2 nM.

In the case of `CC(=O)Nc1ccc(S(=O)(=O)N(CC2CCCC2)C[C@@H](O)[C@H](Cc2ccccc2)NC(=O)OCc2cccnc2)cc1` [Compound 147, N-(4-(Cyclopentylmethyl-((2 syn,3S)-2-hydroxy-4-phenyl-3-(pyridin-3-yl-methoxycarbonylamino)-butyl)-sulfamoyl)-phenyl)-acetamide], the Ki was determined as 1.6 nM.

For `O=C(N[C@@H](Cc1ccccc1)[C@H](O)CN(CC1CCCC1)S(=O)(=O)c1ccccc1)O[C@H]1CCOC1` [Compound 148, N-Cyclopentylmethyl-N-((2 syn,3S)-2-hydroxy-4-phenyl-3-((S)-tetrahydrofuran-3-yloxycarbonylamino)-butyl)-benzenesulfonamide], the Ki came to 0.2 nM.

For `O=C(N[C@@H](Cc1ccccc1)[C@H](O)CN(CC1CCCC1)S(=O)(=O)c1cccnc1)O[C@H]1CCOC1` [Compound 149, Pyridine-3-sulfonic acid cyclopentylmethyl-((2 syn,3S)-2-hydroxy-4-phenyl-3-((S)-tetrahydrofuran-3-yloxycarbonylamino)-butyl)-amide], the Ki amounted to 1.7 nM.

For `CC(C)CN(C[C@@H](O)[C@H](Cc1ccccc1)NC(=O)O[C@H]1CCOC1)S(=O)(=O)N1CCCCC1` [Compound 150, Piperidine-1-sulfonic acid ((2 syn,3S)-2-hydroxy-4-phenyl-3-((S)-tetrahydrofuran-3-yloxycarbonylamino)-butyl)-isobutyl-amide], the Ki was 6 nM.

As to `O=C(N[C@@H](Cc1ccccc1)[C@H](O)CN(CC1CCCC1)S(=O)(=O)c1ccc(OC(F)(F)F)cc1)O[C@H]1CCOC1` [Compound 151], the Ki amounted to 0.8 nM.

As for `CC(C)CN(C[C@@H](O)[C@H](Cc1ccccc1)NC(=O)O[C@H]1CCOC1)S(=O)(=O)c1ccc(OC(F)(F)F)cc1` [Compound 152], the Ki is 2.5 nM.

As for `COc1ccc(S(=O)(=O)N(CC(C)C)C[C@@H](O)[C@H](Cc2ccccc2)NC(=O)OCc2cccnc2)cc1` [Compound 153], the Ki is 0.2 nM.

Regarding `C=CCOC(=O)N[C@@H](Cc1ccccc1)[C@H](O)CN(CC(C)C)S(=O)(=O)c1ccc(OC)cc1` [Compound 154], the Ki came to 0.5 nM.

The values above are taken from patent US20080293727A1, “Novel sulfonamide inhibitors of aspartyl protease” (priority 1992, published 2008).
